Results from ChEMBL document CHEMBL1201862, “PubChem BioAssay data set” (2004).
Several values for one entry are separate records, joined by “and”; a condition that tells them apart may be missing. Equal values may be shown once.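 96-well plates; 48 h exposure; 5 concentrations. Endpoints by linear interpolation between flanking doses. Not reached: highest tested concentration assigned. At the GI50, growth is halved.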 Activity calls are given as the source filed them. No stated cut-off is given here; in the data, active = GI50 up to about 1.1 µM and inactive = higher.

Columns and labels:
Experiment in all cases: NCI-60 cell line screen, 48 h
IGROV-1 = tested on: IGROV-1
MDA-MB-231 = tested on: MDA-MB-231
A549 = tested on: A549
MDA-N = tested on: MDA-N
UO-31 = tested on: UO-31
KM12 = tested on: KM12
UACC-62 = tested on: UACC-62
OVCAR-5 = tested on: OVCAR-5
SF-295 = tested on: SF-295
SN12C = tested on: SN12C
BT-549 = tested on: BT-549
SW-620 = tested on: SW-620
T47D = tested on: T47D
COLO 205 = tested on: COLO 205
MCF7 = tested on: MCF7
NCI-H522 = tested on: NCI-H522
PC-3 = tested on: PC-3
NCI-H226 = tested on: NCI-H226
SF-539 = tested on: SF-539
CAKI-1 = tested on: CAKI-1
MOLT-4 = tested on: MOLT-4
RPMI-8226 = tested on: RPMI-8226
HT-29 = tested on: HT-29
Hs-578T = tested on: Hs-578T
NCI-H460 = tested on: NCI-H460
SNB-19 = tested on: SNB-19
EKVX = tested on: EKVX
HOP-62 = tested on: HOP-62
LOX IMVI = tested on: LOX IMVI
HCC 2998 = tested on: HCC 2998
Malme-3M = tested on: Malme-3M
SR = tested on: SR
SK-OV-3 = tested on: SK-OV-3
UACC-257 = tested on: UACC-257
NCI/ADR-RES = tested on: NCI/ADR-RES
SF-268 = tested on: SF-268
HL-60 = tested on: HL-60
OVCAR-3 = tested on: OVCAR-3
OVCAR-4 = tested on: OVCAR-4
HOP-92 = tested on: HOP-92
MDA-MB-435 = tested on: MDA-MB-435
M14 = tested on: M14
OVCAR-8 = tested on: OVCAR-8
CCRF-CEM = tested on: CCRF-CEM
U-251 = tested on: U-251
NCI-H23 = tested on: NCI-H23
HCT-15 = tested on: HCT-15
DU-145 = tested on: DU-145
786-0 = tested on: 786-0
HCT-116 = tested on: HCT-116
K562 = tested on: K562
RXF 393 = tested on: RXF 393
SK-MEL-2 = tested on: SK-MEL-2
ACHN = tested on: ACHN
SK-MEL-5 = tested on: SK-MEL-5
TK-10 = tested on: TK-10

**Q.** For `COc1ccc(-c2c3c(n(C4OC(COC(C)=O)C(OC(C)=O)C(OC(C)=O)C4OC(C)=O)c(=S)c2C#N)CC(C)(C)CC3=O)cc1` (stereo not drawn), which GI50 (IGROV-1) is on record?
**A.** > 100 µM (inactive) and 74.5 µM (inactive)

**Q.** What about the GI50 (MDA-MB-231) of the same molecule?
**A.** 37.9 µM (inactive) and 35.6 µM (inactive)

**Q.** What about the GI50 (A549) of the same molecule?
**A.** 65.5 µM (inactive)

**Q.** What about the GI50 (MDA-N) of the same molecule?
**A.** 33 µM (inactive) and 65.8 µM (inactive)

**Q.** What about the GI50 (UO-31) of the same molecule?
**A.** > 100 µM (inactive) and 55.3 µM (inactive)

**Q.** And the GI50 (KM12)?
**A.** 74.8 µM (inactive)

**Q.** And the GI50 (UACC-62)?
**A.** 30.3 µM (inactive) and 33 µM (inactive)

**Q.** And the GI50 (OVCAR-5)?
**A.** 61 µM (inactive)

**Q.** And the GI50 (SF-295)?
**A.** 78 µM (inactive)

**Q.** And the GI50 (SN12C)?
**A.** > 100 µM (inactive) and 55.3 µM (inactive)

**Q.** And the GI50 (BT-549)?
**A.** 62.1 µM (inactive) and 32.1 µM (inactive)

**Q.** And the GI50 (SW-620)?
**A.** 37.1 µM (inactive)

**Q.** And the GI50 (T47D)?
**A.** 40.9 µM (inactive) and 64.1 µM (inactive)

**Q.** And the GI50 (COLO 205)?
**A.** > 100 µM (inactive) and 50.4 µM (inactive)

**Q.** And the GI50 (MCF7)?
**A.** 57.3 µM (inactive) and 28.8 µM (inactive)

**Q.** What about the GI50 (NCI-H522) of the same molecule?
**A.** 43.5 µM (inactive) and 22.6 µM (inactive)

**Q.** And the GI50 (PC-3)?
**A.** 59.6 µM (inactive) and 34.4 µM (inactive)

**Q.** What about the GI50 (NCI-H226) of the same molecule?
**A.** 55.5 µM (inactive) and 44.8 µM (inactive)

**Q.** What about the GI50 (SF-539) of the same molecule?
**A.** 35.2 µM (inactive) and 22.8 µM (inactive)

**Q.** What about the GI50 (CAKI-1) of the same molecule?
**A.** 59.2 µM (inactive)

**Q.** And the GI50 (MOLT-4)?
**A.** 20.7 µM (inactive) and 27.8 µM (inactive)

**Q.** What about the GI50 (RPMI-8226) of the same molecule?
**A.** 32.6 µM (inactive) and 26.5 µM (inactive)

**Q.** What about the GI50 (HT-29) of the same molecule?
**A.** 33.1 µM (inactive) and 58.2 µM (inactive)

**Q.** And the GI50 (Hs-578T)?
**A.** 40.4 µM (inactive) and 36.2 µM (inactive)

**Q.** What about the GI50 (NCI-H460) of the same molecule?
**A.** > 100 µM (inactive) and 61.4 µM (inactive)

**Q.** And the GI50 (SNB-19)?
**A.** 97.3 µM (inactive)

**Q.** What about the GI50 (EKVX) of the same molecule?
**A.** 26.6 µM (inactive)

**Q.** And the GI50 (HOP-62)?
**A.** > 100 µM (inactive)

**Q.** What about the GI50 (LOX IMVI) of the same molecule?
**A.** 27.5 µM (inactive) and 29.3 µM (inactive)

**Q.** What about the GI50 (HCC 2998) of the same molecule?
**A.** 47.6 µM (inactive) and 61.1 µM (inactive)

**Q.** What about the GI50 (Malme-3M) of the same molecule?
**A.** > 100 µM (inactive) and 56.2 µM (inactive)

**Q.** And the GI50 (SR)?
**A.** 24.9 µM (inactive) and 37.3 µM (inactive)

**Q.** And the GI50 (SK-OV-3)?
**A.** 96.2 µM (inactive)

**Q.** For `N=C1NC(c2ccc(Cl)cc2)=CC(c2cccc(Cl)c2)S1` (stereo not drawn), which GI50 (IGROV-1) is on record?
**A.** 30.9 µM (inactive)

**Q.** What about the GI50 (A549) of the same molecule?
**A.** 24.7 µM (inactive)

**Q.** And the GI50 (MDA-N)?
**A.** 21.2 µM (inactive)

**Q.** And the GI50 (UACC-257)?
**A.** 25.2 µM (inactive)

**Q.** What about the GI50 (UO-31) of the same molecule?
**A.** 29 µM (inactive)

**Q.** And the GI50 (KM12)?
**A.** 27 µM (inactive)

**Q.** What about the GI50 (NCI/ADR-RES) of the same molecule?
**A.** 45.4 µM (inactive)

**Q.** And the GI50 (UACC-62)?
**A.** 18.8 µM (inactive)

**Q.** And the GI50 (SF-268)?
**A.** 41.8 µM (inactive)

**Q.** And the GI50 (OVCAR-5)?
**A.** 66.8 µM (inactive)

**Q.** And the GI50 (SF-295)?
**A.** 33.8 µM (inactive)

**Q.** What about the GI50 (SN12C) of the same molecule?
**A.** 27.7 µM (inactive)

**Q.** And the GI50 (HL-60)?
**A.** 38 µM (inactive)

**Q.** What about the GI50 (BT-549) of the same molecule?
**A.** 63.5 µM (inactive)

**Q.** What about the GI50 (SW-620) of the same molecule?
**A.** 34.5 µM (inactive)

**Q.** And the GI50 (OVCAR-3)?
**A.** 41.7 µM (inactive)

**Q.** And the GI50 (T47D)?
**A.** 25.4 µM (inactive)

**Q.** And the GI50 (COLO 205)?
**A.** 16.4 µM (inactive)

**Q.** And the GI50 (OVCAR-4)?
**A.** 20.3 µM (inactive)

**Q.** And the GI50 (MCF7)?
**A.** 24.8 µM (inactive)

**Q.** And the GI50 (HOP-92)?
**A.** 16.9 µM (inactive)

**Q.** What about the GI50 (MDA-MB-435) of the same molecule?
**A.** 18.2 µM (inactive)

**Q.** What about the GI50 (M14) of the same molecule?
**A.** 48.4 µM (inactive)

**Q.** And the GI50 (NCI-H522)?
**A.** 20.1 µM (inactive)

**Q.** What about the GI50 (PC-3) of the same molecule?
**A.** 28.2 µM (inactive)

**Q.** What about the GI50 (OVCAR-8) of the same molecule?
**A.** 38.6 µM (inactive)

**Q.** What about the GI50 (NCI-H226) of the same molecule?
**A.** 26.7 µM (inactive)

**Q.** What about the GI50 (SF-539) of the same molecule?
**A.** 48.8 µM (inactive)

**Q.** And the GI50 (CCRF-CEM)?
**A.** 22.4 µM (inactive)

**Q.** And the GI50 (U-251)?
**A.** 22.4 µM (inactive)

**Q.** And the GI50 (NCI-H23)?
**A.** 34.8 µM (inactive)

**Q.** What about the GI50 (HCT-15) of the same molecule?
**A.** 13.1 µM

**Q.** And the GI50 (CAKI-1)?
**A.** 24.1 µM (inactive)

**Q.** What about the GI50 (MOLT-4) of the same molecule?
**A.** 37.4 µM (inactive)

**Q.** And the GI50 (DU-145)?
**A.** 66.1 µM (inactive)

**Q.** And the GI50 (RPMI-8226)?
**A.** 17.3 µM (inactive)

**Q.** And the GI50 (HT-29)?
**A.** 30.8 µM (inactive)

**Q.** And the GI50 (Hs-578T)?
**A.** 26.5 µM (inactive)

**Q.** What about the GI50 (786-0) of the same molecule?
**A.** 36.1 µM (inactive)

**Q.** What about the GI50 (NCI-H460) of the same molecule?
**A.** 26.4 µM (inactive)

**Q.** What about the GI50 (HCT-116) of the same molecule?
**A.** 26.4 µM (inactive)

**Q.** What about the GI50 (K562) of the same molecule?
**A.** 34.3 µM (inactive)

**Q.** What about the GI50 (RXF 393) of the same molecule?
**A.** 23.8 µM (inactive)

**Q.** And the GI50 (SNB-19)?
**A.** 16.8 µM (inactive)

**Q.** And the GI50 (EKVX)?
**A.** 25.4 µM (inactive)

**Q.** And the GI50 (SK-MEL-2)?
**A.** 20.6 µM (inactive)

**Q.** What about the GI50 (ACHN) of the same molecule?
**A.** 24.4 µM (inactive)

**Q.** What about the GI50 (HOP-62) of the same molecule?
**A.** 38.7 µM (inactive)

**Q.** And the GI50 (LOX IMVI)?
**A.** 33.7 µM (inactive)

**Q.** What about the GI50 (HCC 2998) of the same molecule?
**A.** 27.7 µM (inactive)

**Q.** And the GI50 (Malme-3M)?
**A.** 38 µM (inactive)

**Q.** What about the GI50 (SR) of the same molecule?
**A.** 28.7 µM (inactive)

**Q.** And the GI50 (SK-OV-3)?
**A.** 36.3 µM (inactive)

**Q.** What about the GI50 (SK-MEL-5) of the same molecule?
**A.** 27 µM (inactive)

**Q.** What about the GI50 (TK-10) of the same molecule?
**A.** 22.4 µM (inactive)
